We go through four compounds from US8802597B2, “Herbicidal pyrimidines” (E I du Pont de Nemours and Company, priority 2003, dated 2014).

Assay in all cases: Test A pre/postemergence
Format in all cases: in vivo

For assay [1], the system named is velvetleaf (Abutilon theophrasti). Conditions: for pest or weed control at 125 g/ha / pest or weed control at 500 g/ha: Abutilon theophrasti, 240 h, read-out: Plant response rating, Velvetleaf. Summed up: (§1)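 Seeds sown in loam–sand blend received a preemergence directed soil spray of test chemical in non-phytotoxic solvent with surfactant; same-formulation postemergence spray given concurrently to plants 2–10 cm tall at 1- to 2-leaf stage. Greenhouse ~ten days, then visual injury rating versus untreated controls, 0 (no effect) to 100 (complete control).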

The subject of assay [2] is morningglory (Ipomoea spp.). The following applies: for pest or weed control at 125 g/ha / pest or weed control at 500 g/ha: Ipomoea, 240 h, read-out: Plant response rating, Morningglory. The essentials: as §1
For assay [3], the system named is giant foxtail (Setaria faberi). The following applies: for pest or weed control at 125 g/ha / pest or weed control at 500 g/ha: Setaria faberi, 240 h, read-out: Plant response rating, Foxtail, Giant. Summed up: as §1
Assay [4] has as its system crabgrass (Digitaria sanguinalis). Conditions: for pest or weed control at 125 g/ha / pest or weed control at 500 g/ha: Digitaria sanguinalis, 240 h, read-out: Plant response rating, Crabgrass. Summed up: as §1
The test system of assay [5] is barnyardgrass (Echinochloa crus-galli). The following applies: for pest or weed control at 125 g/ha / pest or weed control at 500 g/ha: Echinochloa crus-galli, 240 h, read-out: Plant response rating, Barnyardgrass. The essentials:
as §1

For assay [6], the system named is redroot pigweed (Amaranthus retroflexus). Conditions: for pest or weed control at 125 g/ha / pest or weed control at 500 g/ha: Amaranthus retroflexus, 240 h, read-out: Plant response rating, Pigweed. Summed up:
as §1

Where [7] appears, read: post-emergence, Postemergence, 125 g ai/ha, 0 to 100 scale (0 no effect, 100 complete control).
Setting [8] is: post-emergence, Postemergence, 500 g ai/ha, 0 to 100 scale (0 no effect, 100 complete control).
Setting [9] is: pre-emergence, Preemergence, 125 g ai/ha, 0 to 100 scale where 0 is no effect and 100 is complete control, approximately ten days.
[10] abbreviates: pre-emergence, Preemergence, 500 g ai/ha, 0 to 100 scale where 0 is no effect and 100 is complete control, approximately ten days.
[11] abbreviates: Postemergence, 125 g ai/ha, 0 to 100 scale (0 no effect, 100 complete control).
Where [12] appears, read: Postemergence, 500 g ai/ha, 0 to 100 scale (0 no effect, 100 complete control).
Setting [13] is: Preemergence, 125 g ai/ha, 0 to 100 scale where 0 is no effect and 100 is complete control, approximately ten days.
[14] abbreviates: Preemergence, 500 g ai/ha, 0 to 100 scale where 0 is no effect and 100 is complete control, approximately ten days.

SMILES strings stand for the structures. Like-named read-outs stand apart in the source and are kept apart here.

On to `COC(=O)c1nc(-c2ccc(Br)cc2)nc(N)c1Cl` [Compound 96, methyl 6-amino-2-(4-bromophenyl)-5-chloro-4-pyrimidinecarboxylate], for which the pest or weed control at 125 g/ha in assay [1] (setting [7]) was 80%; in assay [1] (setting [9]), 65%; in assay [2] (setting [7]), 60%; in assay [2] (setting [9]), 15%; in assay [3] (setting [7]), 25%; in assay [3] (setting [9]), 5%. Besides, the pest or weed control at 125 g/ha stood at 5% in assay [4] (setting [7]); 50% in assay [4] (setting [9]); 20% in assay [5] (setting [7]); 5% in assay [5] (setting [9]); 70% in assay [6] (setting [7]); 80% in assay [6] (setting [9]). For the same compound, the pest or weed control at 500 g/ha in assay [1] (setting [8]) was found to be 85%; in assay [1] (setting [10]) it was 80%; in assay [2] (setting [8]) it was 65%; in assay [2] (setting [10]), 80%; in assay [3] (setting [8]), 35%; in assay [3] (setting [10]) it was 10%. For the same compound, the pest or weed control at 500 g/ha in assay [4] (setting [8]) turned out to be 20%; in assay [4] (setting [10]) it was 65%; in assay [5] (setting [8]), 25%; in assay [5] (setting [10]), 10%; in assay [6] (setting [8]), 85%; in assay [6] (setting [10]), 80%.

On to `CCOC(=O)c1nc(-c2ccc3c(c2)OCO3)nc(N)c1Cl` [Compound 74], for which the pest or weed control at 125 g/ha came out at 70% in assay [1] (setting [7]); 30% in assay [1] (setting [9]); 40% in assay [2] (setting [7]); 0% in assay [2] (setting [9]); 60% in assay [3] (setting [7]); 0% in assay [3] (setting [9]). Besides, the pest or weed control at 125 g/ha in assay [4] (setting [7]) was found to be 30%; in assay [4] (setting [9]), 20%; in assay [5] (setting [7]), 30%; in assay [5] (setting [9]), 0%; in assay [6] (setting [7]), 60%; in assay [6] (setting [9]), 0%. Further, the pest or weed control at 500 g/ha in assay [1] (setting [8]) amounted to 80%; in assay [1] (setting [10]), 50%; in assay [2] (setting [8]), 30%; in assay [2] (setting [10]) it was 30%; in assay [3] (setting [8]) it was 70%; in assay [3] (setting [10]) it was 40%. Also, the pest or weed control at 500 g/ha amounted to 60% in assay [4] (setting [8]); 50% in assay [4] (setting [10]); 70% in assay [5] (setting [8]); 50% in assay [5] (setting [10]); 70% in assay [6] (setting [8]); 40% in assay [6] (setting [10]).

For the compound `COC(=O)c1nc(-c2ccc(Br)cc2)nc(N)c1Br` [Compound 129], the “Plant response rating, Velvetleaf” value in assay [1] (setting [11]) was 80; in assay [1] (setting [12]), 90; in assay [1] (setting [13]), 0; in assay [1] (setting [14]) it was 5. For the same compound, the “Plant response rating, Morningglory” value in assay [2] (setting [11]) was determined as 60; in assay [2] (setting [12]), 70; in assay [2] (setting [13]), 0; in assay [2] (setting [14]), 0. For the same compound, the “Plant response rating, Foxtail, Giant” value in assay [3] (setting [11]), in assay [3] (setting [12]), in assay [3] (setting [13]) and in assay [3] (setting [14]) was 0 in each case. The “Plant response rating, Crabgrass” value in assay [4] (setting [11]), in assay [4] (setting [12]), in assay [4] (setting [13]) and in assay [4] (setting [14]) was 0 each time. In addition, the “Plant response rating, Barnyardgrass” value in assay [5] (setting [11]), in assay [5] (setting [12]), in assay [5] (setting [13]) and in assay [5] (setting [14]) was 0 throughout. In addition, the “Plant response rating, Pigweed” value in assay [6] (setting [11]) was 80; in assay [6] (setting [12]), 85; in assay [6] (setting [13]) it was 0; in assay [6] (setting [14]), 15.

For `CNc1nc(C2CC2)nc(C(=O)OC)c1Cl` [Compound 79], the pest or weed control at 125 g/ha is 90% in assay [1] (setting [7]); 60% in assay [1] (setting [9]); 90% in assay [2] (setting [7]); 55% in assay [2] (setting [9]); 80% in assay [3] (setting [7]); 40% in assay [3] (setting [9]). The pest or weed control at 125 g/ha in assay [4] (setting [7]) came out at 40%; in assay [4] (setting [9]), 30%; in assay [5] (setting [7]), 85%; in assay [5] (setting [9]), 30%; in assay [6] (setting [7]) it was 90%; in assay [6] (setting [9]), 90%. Besides, the pest or weed control at 500 g/ha in assay [1] (setting [8]) was determined as 95%; in assay [1] (setting [10]) it was 90%; in assay [2] (setting [8]) it was 95%; in assay [2] (setting [10]), 100%; in assay [3] (setting [8]) it was 90%; in assay [3] (setting [10]), 95%. For the same compound, the pest or weed control at 500 g/ha came to 75% in assay [4] (setting [8]); 80% in assay [4] (setting [10]); 90% in assay [5] (setting [8]); 80% in assay [5] (setting [10]); 100% in assay [6] (setting [8]); 100% in assay [6] (setting [10]).
